Experiment [1] relates to beta amyloid (Aβ) production in N2a/APP cells. Description: Inhibition of beta amyloid Aβ(1-42) production in nerve cells, immunoassay. The format is cell-based. Conditions: read-out: Aβ Inhibition Rate (%). As for the experimental part:
N2a/APP cells, used as a study model for neurodegenerative diseases (Wang X C, Zhang Y C, Chatterjie N, Grundke-Iqbal I, Iqbal K, Wang J Z. Neurochem Res (2008) 33:1138-1144), were employed to analyze the inhibition of beta amyloid (Aβ) production in nerve cells. N2a/APP cells were fixed onto 24-well plates (5×10^4 cells/well) containing a medium devoid of hygromycin B. The ingredients listed in Table 5 were added at a final concentration of 10 μg/mL to each well and incubated for 48 hrs. Secreted Aβ(1-42) was quantitatively analyzed with an Aβ(1-42) immunoassay kit (Biosource, Camarillo, Calif., USA). In this regard, the medium in each well was transferred into 96-well plates coated with an Aβ(1-42) antibody and then treated with a detection antibody. For this, after incubation at room temperature for 3 hrs, the medium was treated with HRP (horseradish peroxidase), an anti-rabbit antibody and stabilized chromogen to allow an antigen-antibody reaction. This reaction was terminated with a stop buffer before absorbance was read at 450 nm. For a negative control, no samples were added to the medium. Inhibitory effects on beta amyloid production were calculated according to the following equation and the results are summarized in Table 5, below.
Aβ Inhibition (%)=(C−S)/C×100
(§1) where C is the absorbance of a negative control and S is the absorbance of each sample.

The test system of a further experiment is N2a/APP cells. Description: Reduction of neurotoxicity, MTT cell viability assay. As to conditions: 10 μg/mL, 12 hrs. The format is cell-based. Here is the method: For this, N2a/APP cells were subjected to an MTT assay, which is a measure of mitochondrial activity that converts 3-(4,5-dimethyl-thiazol-2-yl)-2,5-diphenyl-tetrazolium bromide (MTT) to formazan in living cells. N2a/APP cells were seeded at a density of 1×10^4 cells/well into 96-well plates, incubated for 24 hrs, and left for 12 hrs in serum-free DMEM-Opti-MEM. Thereafter, the samples listed in Table 5 were added at a final concentration of 10 μg/mL to each well (medium free of any of the samples was used for a negative control) and then incubated for 12 hrs. To each well was added approx. 10 μL of MTT (5 mg/ml in phosphate buffered saline (PBS) solution), followed by incubation at 37° C. for 4 hrs. Each well was measured for absorbance at 570 nm. Inhibitory activity against neurotoxicity was assessed by an increase rate of cell viability as calculated by the following equation.
Increase Rate of Cell Viability (%)=(S−C)/C×100
as §1
For orientation: Tetrazolium dyes change colour on reduction, which living cells bring about.

Another experiment concerns the target T1, human recombinant BACE1 (Homo sapiens, UniProt P56817).
T1 construct: purchased PanVera, Wis., USA
Nature of the experiment: β-secretase inhibition, human recombinant BACE1 assay kit (PanVera), fluorescence. The experiment is classed as biochemical. As to conditions: for inhibition at 0.01 µM: read-out: BACE Inhibition at 10 nM; for IC50: β-secretase (BACE). Here is the method:
The primary 1,3,5-trihydroxybenzene polymer products obtained under the various conditions were assayed for inhibitory activity against β-secretase. For this purpose, a human recombinant BACE1 assay kit (PanVera, Wis., USA) was used according to the manufacturer's instructions.
For a negative control, an assay buffer containing none of the samples was used instead of the sample solution. In the absence of light, each reaction mixture was allowed to react at 25° C. for 60 min. Thereafter, while a light beam at 528 nm was applied to the reaction mixture, fluorescent light at 620 nm was detected with Bio-Tek Microplate fluorescence reader FLx 800 (VT, USA). Inhibition activity was calculated according to the following formula:
Inhibition (%)=[1−{(S−S0)/(C−C0)}]×100
C is a fluorescent intensity after reaction of the negative control for 60 min,
C0 is an initial fluorescent intensity of the negative control,
S is a fluorescent intensity after reaction of each sample for 60 min, and
S0 is an initial fluorescent intensity of each sample.

The mark [2] stands for this setting: N2a/APP cells, 10 μg/mL, 48 hrs, secreted Aβ(1-42).

This note sets out measurements from patent US20120122822A1, “COMPOSITIONS FOR REDUCING BETA-AMYLOID-INDUCED NEUROTOXICITY COMPRISING BETA-SECRETASE INHIBITOR” (Phloronol, Inc., priority 2010, published 2012).

The structures appear in SMILES notation. Like-named read-outs stand apart in the source and are kept apart here.

T1 sequence (P56817 46-501): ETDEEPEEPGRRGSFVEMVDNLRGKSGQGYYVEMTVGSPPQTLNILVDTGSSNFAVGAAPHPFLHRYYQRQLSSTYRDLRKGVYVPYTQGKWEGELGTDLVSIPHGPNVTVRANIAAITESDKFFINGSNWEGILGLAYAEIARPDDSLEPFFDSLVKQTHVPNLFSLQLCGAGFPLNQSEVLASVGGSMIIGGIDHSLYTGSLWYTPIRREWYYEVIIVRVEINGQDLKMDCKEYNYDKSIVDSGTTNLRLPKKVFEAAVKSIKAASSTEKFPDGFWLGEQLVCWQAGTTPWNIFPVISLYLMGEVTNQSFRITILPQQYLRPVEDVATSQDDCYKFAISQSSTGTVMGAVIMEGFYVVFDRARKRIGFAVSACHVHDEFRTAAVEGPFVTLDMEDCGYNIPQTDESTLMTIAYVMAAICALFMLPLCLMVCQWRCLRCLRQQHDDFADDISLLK

The term inhibition denotes the relative decrease from the control value, in per cent. Regarding `C[C@H](NC(=O)Cc1cc(F)cc(F)c1)C(=O)N[C@@H]1C(=O)N(C)c2ccccc2-c2ccccc21` [C. Ex. 2, (S)-2-[2-(3,5-Difluoro-phenyl)-acetylamino]-N-((S)-5-methyl-6-oxo-6,7-dihydro-5H-dibenzo[b,d]azepin-7-yl)-propionamide], in experiment [1] (setting [2]), the inhibition at 10 µg/mL is 21%. Further, the “Increase Rate of Cell Viability (%)” value in the experiment on N2a/APP cells turned out to be 5%.

In the case of `C[C@H](NC(=O)Cc1cc(F)cc(F)c1)C(=O)N[C@H]1N=C(c2ccccc2)c2ccccc2N(C)C1=O` [C. Ex. 3, (S)-2-[2-(3,5-Difluoro-phenyl)-acetylamino]-N-((S)-1-methyl-2-oxo-5-phenyl-2,3-dihydro-1H-benzo[e][1,4]diazepin-3-yl)-propionamide], the inhibition at 10 µg/mL in experiment [1] (48 h) was determined as 22%. The “Increase Rate of Cell Viability (%)” value with N2a/APP cells is −5%.

`CC(C)Cc1ccc(C(C)C(=O)O)cc1` (centres unmarked) [C. Ex. 4, ibuprofen]: the inhibition at 10 µg/mL in experiment [1] (setting [2]) came out at 17%. In the experiment on N2a/APP cells, the “Increase Rate of Cell Viability (%)” value is recorded as 2%.

On to `Cc1ccc(-c2cc(C(F)(F)F)nn2-c2ccc(S(N)(=O)=O)cc2)cc1` [C. Ex. 5, celecoxib], for which the inhibition at 10 µg/mL in experiment [1] (setting [2]) was 19%. Further, the “Increase Rate of Cell Viability (%)” value in the experiment on N2a/APP cells is listed as 15%.

For `O=c1c(O)c(-c2ccc(O)c(O)c2)oc2cc(O)cc(O)c12` [C. Ex. 6, quercetin], the inhibition at 10 µg/mL in experiment [1] (48 h) was 17%. Further, the “Increase Rate of Cell Viability (%)” value in the experiment with N2a/APP cells is on record as 12%.

Consider `Oc1ccc(C=Cc2cc(O)cc(O)c2)cc1` [C. Ex. 7, resveratrol], for which the inhibition at 10 µg/mL in experiment [1] (48 h) came out at 13%. Also, the “Increase Rate of Cell Viability (%)” value in the experiment on N2a/APP cells stood at 10%.

By IC50 is commonly meant the point on the concentration scale where inhibition reaches its midpoint. For `Oc1cc(O)c2c(c1)Oc1c(O)cc3oc4cc(O)cc(O)c4c3c1O2` [Chemical Formula 3-1], at human recombinant BACE1, the inhibition at 0.01 µM is 53% and the IC50 was determined as 5.8 nM.

As for `Oc1cc(O)cc(Oc2c(O)cc(O)c3c2oc2cc(O)c4c(c23)Oc2c(O)cc(O)cc2O4)c1` [Chemical Formula 3-2], at human recombinant BACE1, the inhibition at 0.01 µM was found to be 87% and the half-inhibitory concentration (IC50) amounted to 1.7 nM.

On to `Oc1cc(O)cc(Oc2c(O)cc(O)c3c2Oc2c(O)cc4oc5cc(O)cc(O)c5c4c2O3)c1` [Chemical Formula 3-4], for which, on human recombinant BACE1, the inhibition at 0.01 µM turned out to be 90% and the IC50 worked out at 1.5 nM.

Turning to `Oc1cc(O)cc(Oc2c(O)cc3c(c2O)Oc2c(c(O)cc4oc5c(Oc6cc(O)cc(O)c6)c(O)cc(O)c5c24)O3)c1` [Chemical Formula 3-6], in experiment [1] (setting [2]), the inhibition at 10 µg/mL came to 30%. For the same molecule, on human recombinant BACE1, the inhibition at 0.01 µM was 94% and the concentration for half-maximal inhibition (IC50) stood at 1.3 nM. In addition, the “Increase Rate of Cell Viability (%)” value in the experiment on N2a/APP cells is listed as 22%.

As for `Oc1cc(O)c2c(c1)Oc1c(cc3oc4cc(O)cc(O)c4c3c1O)O2` [Chemical Formula 4-1], on human recombinant BACE1, the inhibition at 0.01 µM is 65% and the 50% inhibitory concentration (IC50) worked out at 4.7 nM.

Regarding `Oc1cc(O)cc(Oc2c(O)cc(O)c3c2oc2cc4c(c(O)c23)Oc2cc(O)cc(O)c2O4)c1` [Chemical Formula 4-2], at human recombinant BACE1, the inhibition at 0.01 µM is 77% and the IC50 is 3.6 nM.

Consider `Oc1cc(O)cc(Oc2c(O)cc(O)c3c2Oc2c(cc4oc5cc(O)cc(O)c5c4c2O)O3)c1` [Chemical Formula 4-3], for which, at human recombinant BACE1, the inhibition at 0.01 µM came out at 70% and the IC50 was found to be 4 nM.

In the case of `Oc1cc(O)cc(Oc2c(O)cc(O)c3c2Oc2c(cc4oc5c(Oc6cc(O)cc(O)c6)c(O)cc(O)c5c4c2O)O3)c1` [Chemical Formula 4-4], in experiment [1] (setting [2]), the inhibition at 10 µg/mL was 27%. Moreover, at human recombinant BACE1, the inhibition at 0.01 µM is 86% and the IC50 is 2.4 nM. Moreover, the “Increase Rate of Cell Viability (%)” value in the experiment on N2a/APP cells came to 21%.
